Source: patent US4946838A, “Crystalline anhydrous aztreonam” (priority 1986, dated 1990)
“Also recorded” adds a separate entry of the source. Where two headings read alike, the source gives them in different places.

Tests used:
[1] = Differential Scanning Calorimetry (DSC), peak temperatures; assay type: physicochemical
[2] = Intrinsic Dissolution Rate; assay type: physicochemical; details: in words
[3] = Powder properties (density, surface area, flowability); assay type: physicochemical; details: in words
[4] = Hygroscopicity (Equilibrium Moisture Content and rate); assay type: physicochemical; details: for Hygroscopicity: Rate: in words
[5] = Hydration (water content) of crystalline forms; assay type: physicochemical; details: for Hydration: in words
[6] = Crystallinity and morphology (microscopy, X-ray diffraction); assay type: physicochemical
[7] = compared with α-form or simple salts; powder for reconstitution

| Structure (SMILES) | Intrinsic Dissolution Rate [2] | Density [3] | Flowability [3] | Surface Area [3] | Hygroscopicity: EMC (Equilibrium Moisture Content) [4] | Hygroscopicity: Rate [4] | Hydration, water content [5] | Hydration [5] | Morphology [6] | Crystallinity: X-ray diffraction [6] | Crystallinity: Microscopy [6] | other results |
| --- | --- | --- | --- | --- | --- | --- | --- | --- | --- | --- | --- | --- |
| C[C@H]1[C@H](NC(=O)/C(=N\OC(C)(C)C(=O)O)c2csc(N)n2)C(=O)N1S(=O)(=O)O [α-Form, [3S-[3α(Z),4β]]-3-[[(2-amino-4-thiazolyl)[(1-carboxy-1-methylethoxy)imino]acetyl]amino]-4-methyl-2-oxo-1-azetidinesulfonic acid] | slow | low | poor | high | 0-14% | rapid | 7-14 % water | Hydrous | needles or rods | crystalline | birefringent | DSC, peak temperature, exotherm ([1]; decomp.): 200 °C; DSC, peak temperature, endotherm ([1]; dehydration): 107 °C |
| C[C@H]1[C@H](NC(=O)/C(=N\OC(C)(C)C(=O)O)c2csc(N)n2)C(=O)N1S(=O)(=O)O [β-Form, [3S-[3α(Z),4β]]-3-[[(2-amino-4-thiazolyl)[(1-carboxy-1-methylethoxy)imino]acetyl]amino]-4-methyl-2-oxo-1-azetidinesulfonic acid] | fast | high | good | low | 0-3% | slow | 0-1 % water | Anhydrous | spiny fused spherulites | crystalline | birefringent | DSC, peak temperature, exotherm ([1]; decomp, when crystallized from absolute ethanol): 228 °; DSC, peak temperature, exotherm ([1]; decomp, when crystallized from absolute methanol): 238 °; DSC, endotherm ([1]; in words): none; Shelf life [7]: greater than that of the α-form, or for that matter simple salts of the compound; Density ([3]; listed as β-form): dense; Hygroscopicity [4]: nonhygroscopic; also recorded: substantially non-hygroscopic; Hygroscopicity ([4]; listed as crystalline, anhydrous form): substantially non-hygroscopic; Hydration ([5]; listed as β-form): anhydrous |
